The melting point is the temperature of the solid-liquid transition.

Several values for one entry are separate records, joined by “and”; a condition that tells them apart may be missing. Equal entries are not always repeated. Structures can show the parent of a compound that is named as a salt.

In turn, `NS(N)(=O)=O` [sulfamide] registered a melting point of 92 °C.
For `CC(C(=O)O)c1cccc(C(=O)c2ccccc2)c1` (stereo not given) [Ketoprofen] the value was 94 °C; for `N#CSCSC#N` [Methylene bis(thiocyanate)], 106 °C.
In turn, `Oc1cccc(F)c1` [3-fluorophenol] displayed a melting point of 12 °C.
The compound `CC(C)(C)C(=O)Nc1ccccc1B(O)O` [2-(2,2,2-trimethylacetamido)benzeneboronic acid] gave a melting point of 270 °C.
The compound `O=C(O)c1ccccc1C(=O)c1ccccc1` [2-benzoylbenzoic acid] yielded a melting point of 129 °C.
For `CCC(C)NC(=O)C(C(F)(F)F)C(F)(F)F` (stereo not given), the melting point came out at 112 °C.
The result for `N#Cc1cccc2c(N)cccc12` [5-aminonaphthalene-1-carbonitrile] reads 137 °C.
In turn, `COC(N)=O` [methyl carbamate] gave a melting point of 55 °C.
The compound `NC(=O)c1cc(F)cc(F)c1` [3,5-difluorobenzamide] returned a melting point of 156 °C.
Take `COC(=O)C1=C(C)NC(C)=C(C(=O)OC)C1c1ccccc1[N+](=O)[O-]` [Nifedipine]: the melting point turned out to be 173 °C.
In the case of `O=c1[nH]cc(F)c(=O)[nH]1` [5-fluorouracil], the melting point came out at 283 °C.
In the case of `O=C(O)c1ccc(Br)cc1` [4-Bromobenzoic acid], the melting point is 253 °C.
As to `Nc1ccccc1C(=O)O` [o-aminobenzoic_acid], the melting point was 146 °C.
For `COC(=O)CCCCC(=O)OC` [Dimethyl adipate] the value was 8 °C; for `Cc1cccc(C)c1` [m-xylene], -47 °C.
In the case of `CCCCCCCCCCCCCCC(=O)O` [pentadecanoic acid], the melting point is 53 °C.
On to `O=Cc1ccccc1Br` [o-bromobenzaldehyde], for which the melting point stood at 22 °C.
In turn, `Clc1ccc(-c2nc3c4ccccc4ccn3n2)cc1` [lotrifen] showed a melting point of 238 °C.
Compound `OB(O)c1cccc(CBr)c1` [3-(bromomethyl)benzeneboronic acid] displayed a melting point of 215 °C.
On to `COC(=O)c1ccc(C)cc1` [methyl p-toluate], for which the melting point came to 34 °C.
`O=C(O)c1c2ccccc2cc2ccccc12` [Anthracene-9-carboxylic acid] returned a melting point of 213 °C.
As for `Nc1nc(O)nc2c1cnn2CCO` [4-amino-1-(2-hydroxyethyl)-1H-pyrazolo[3,4-d]pyrimidin-6-ol], the melting point was 308 °C.
Consider `COc1ccc2cc(C(C)O)ccc2c1` (stereo not given) [1-(6-methoxy-2-naphthyl)ethanol], for which the melting point stood at 112 °C.
The result for `CCCCCCS(=O)(=O)CC#N` [N-hexylsulfonylacetonitrile] reads 42 °C; that for `O=C(O)CCC(=O)O` [Succinic acid], 186 °C.
`CCOC(=O)CC` [ethyl propionate]: the melting point was -73 °C.
For `NS(=O)(=O)c1ccc(Cl)cc1` [4-chlorobenzenesulfonamide], the melting point came out at 146 °C.
Regarding `CCN(CC)CCNc1ccc(CO)c2sc3ccccc3c(=O)c12` [hycanthone], the melting point was found to be 101 °C.
In the case of `c1cc2cccc3c4cccc5cccc(c(c1)c23)c54` [perylene], the melting point was 277 °C and 278 °C (2×).
`CC(C)c1ccc(C(=O)O)cc1` [4-isopropylbenzoic acid] displayed a melting point of 119 °C.
`O=C(O)C(F)c1ccccc1` (stereo not drawn) [alpha-fluorophenylacetic acid] registered a melting point of 80 °C.
In turn, `CC12CCC(C1(C)C)C(C/C=C\c1ccccc1)(C1(C/C=C/c3ccccc3)C(=O)C3(C)CCC1C3(C)C)C2=O` (stereo not given) yielded a melting point of 152 °C.
On to `C#CCCCCCCCCCCCCCCCCC` [1-nonadecyne], for which the melting point turned out to be 33 °C.
For `O=C1CCCc2cc3c(c(-c4ccccc4)c21)-c1cc(Cl)ccc1OC3` the value was 185 °C; for `O=C(O)CCSc1ccc2ccccc2c1` [3-(2-naphthylthio)propionic acid], 105 °C; for `CCOc1ccc(C(C)=O)cc1` [p-ethoxyacetophenone], 39 °C.
`COc1ccc(C(=O)OC(=O)c2ccc(OC)cc2)cc1` [4-methoxybenzoic anhydride] registered a melting point of 97 °C.
For the compound `CC(C)(C)C1=CC(=O)C(=O)C(C(C)(C)C)=C1` [3,5-di-tert-butyl-o-benzoquinone], the melting point was 115 °C.
For `O=C(O)CCC(=O)O` [succinic_acid] the value was 188 °C.
On to `Cc1cc[n+]([O-])cc1` [4-picoline-N-oxide], for which the melting point was 186 °C and 184 °C.
For the compound `CCCC(C)(C)O` [2-methyl-2-pentanol], the melting point was -102 °C.
Compound `CC(C)[C@@H]1CC[C@@H](C)C[C@H]1O` [Menthol] registered a melting point of 43 °C.
Compound `O=C(O)c1ccc2c(c1)OCCCO2` [3,4-dihydro-2h-1,5-benzodioxepin-7-carboxylic acid] showed a melting point of 148 °C.
For `O=C(O)C(=Cc1ccccc1)Cc1ccccc1` [2-benzyl-3-phenylacrylic acid], the melting point was 158 °C.
`COc1cc(C=O)cc(Br)c1O` [5-bromovanillin]: the melting point was 164 °C.
In turn, `COc1cc(Cl)cc(Cl)c1` [3,5-dichloroanisole] registered a melting point of 41 °C.
In the case of `CC(=O)Nc1ccc(C(=O)O)cc1` [4-acetamidobenzoic acid], the melting point turned out to be 260 °C.
`C1CO1` [Oxirane]: the melting point was -111 °C.
As to `CI` [Iodomethane], the melting point was -64 °C.
Regarding `[O-]/[N+](=N\c1ccccc1)c1ccc(/N=N/c2ccc(/[N+]([O-])=N/c3ccccc3)cc2)cc1` [(E)-bis{4-[(Z)-phenyl-NNO-azoxy]phenyl}diazene], the melting point is 139 °C.
Compound `Clc1nc(Cl)nc(Cl)n1` [cyanuric chloride] showed a melting point of 147 °C.
Consider `CN1CCCC1=O` [1-Methylpyrrolidin-2-one], for which the melting point was -23 °C.
Turning to `Brc1ccc2sccc2c1` [5-bromobenzo[b]thiophene], the melting point is 46 °C.
Take `O=C(O)c1ccccc1O` [Salicyclic acid]: the melting point was 158 °C.
`Cc1cccc([N+](=O)[O-])c1` [m-nitrotoluene] registered a melting point of 16 °C.
Compound `Cc1cc(C)c(N=C=O)c(C)c1` [2,4,6-trimethylphenyl isocyanate] displayed a melting point of 45 °C.
In turn, `COc1ccc(Br)c(OC)c1` [1-bromo-2,4-dimethoxybenzene] had a melting point of 26 °C.
The compound `CC(=O)c1cc(F)cc(F)c1O` [3',5'-difluoro-2'-hydroxyacetophenone] showed a melting point of 107 °C.
As for `CC(=O)Oc1c(C)c(C)c2c(c1C)CC[C@@](C)(CCC[C@H](C)CCC[C@H](C)CCCC(C)C)O2` [vitamin e acetate], the melting point is -28 °C.
`CC1(C)OC(CP(c2ccccc2)c2ccccc2)C(CP(c2ccccc2)c2ccccc2)O1` (stereo not given) yielded a melting point of 87 °C.
Take `O=Cc1c(Cl)cccc1Cl` [2,6-dichlorobenzaldehyde]: the melting point is 71 °C and 71.5 °C.
On to `OB(O)c1ccnc(F)c1Cl` [3-chloro-2-fluoropyridine-4-boronic acid], for which the melting point stood at 128 °C.
Take `CCCCSCCCC` [di-n-butyl sulfide]: the melting point was -80 °C.
`O=C1OC(c2ccccc2)=NC1=Cc1ccco1` [2-Oxazolin-5-one, 4-furfurylidene-2-phenyl-] came in with a melting point of 159 °C.
In the case of `Cc1ccc(C#N)cc1C` [3,4-dimethylbenzonitrile], the melting point was 66 °C.
Consider `CCOC(=O)/C(C#N)=C\c1ccc(-c2ccccc2)o1` [Ethyl (2Z)-2-cyano-3-(5-phenyl-2-furyl)acrylate], for which the melting point is 117 °C.
For `O=C(CCC(=O)Oc1ccccc1)Oc1ccccc1` [diphenyl succinate] the value was 88 °C.
On to `ClCBr` [Bromo(chloro)methane], for which the melting point is -88 °C.
With `CCSc1nnc(N)s1` [2-amino-5-ethylthio-1,3,4-thiadiazole], the melting point came out at 132 °C.
As for `Oc1ccc(Nc2ccccc2)cc1` [4-hydroxydiphenylamine], the melting point stood at 69 °C.
For the compound `COc1ccccc1OC(=O)c1ccccc1` [2-methoxyphenyl benzoate], the melting point amounted to 59 °C.
Regarding `COc1cc(OC)c(OC)cc1C=O` [2,4,5-trimethoxybenzaldehyde], the melting point is 114 °C.
As for `NCc1ccccc1` [benzylamine], the melting point was 10 °C.
`CC(=O)NC1CCCCC(NC(C)=O)CCCC1` (stereo not given) [N,N'-cyclodecane-1,6-diyldiacetamide]: the melting point is 256 °C.
As to `ClCCOCCCl` [bis(2-chloroethyl) ether], the melting point was -50 °C.
Take `ClC(Cl)Br` [bromodichloromethane]: the melting point was -55 °C.
Consider `Cc1cc(C)c(B(O)O)c(C)c1` [2,4,6-trimethylbenzeneboronic acid], for which the melting point worked out at 124 °C.
The compound `CCOC(=O)CNC(=O)c1ccccc1` [ethyl hippurate] displayed a melting point of 59 °C.
`NS(=O)(=O)c1cc2c(cc1Cl)NC(C1CC3C=CC1C3)NS2(=O)=O` (stereo not given) [Cyclothiazide] returned a melting point of 228 °C.
For `CC(C)(C)OC(=O)N1CCC[C@@H](O)C1` [(R)-1-boc-3-hydroxypiperidine], the melting point amounted to 47 °C.
As to `CC#N` [methyl_cyanide], the melting point is -46 °C.
The result for `COC(=O)/C=CC(=O)OC` [dimethyl maleate] reads -19 °C; that for `O=[N+]([O-])c1cccc(CBr)c1` [3-nitrobenzyl_bromide], 59 °C.
With `CC(=O)Nc1cccc(O)c1` [3-acetamidophenol], the melting point is 148 °C.
`CCCC[C@@H](NC(=O)OCc1ccccc1)C(=O)O` [N-benzyloxycarbonyl-D-norleucine] returned a melting point of 57 °C.
For `O=CC1CCCCC1` [cyclohexanecarbaldehyde] the value was 34.5 °C.
The result for `CCCCCCC(=O)O` [Heptanoic acid] reads -9 °C; that for `N#CCc1ccc(C(=O)O)cc1` [p-cyanomethyl_benzoic_acid], 192 °C; that for `C[C@]12CCC(=O)C=C1CC[C@@H]1[C@@H]2CC[C@@]2(C)[C@H]1CC[C@]2(C)O` [17a-Methyltestosterone], 163 °C.

The record behind these values is the Bradley open melting point set (2014).
